Assay: Agonist activity at VDR in human HL-60 cells assessed as induction of cell differentiation of promyelocytes to monocytes after 4 days by NBT reduction assay

| SMILES | EC50 |
| --- | --- |
| C[C@H](CCC(=O)O)[C@H]1CC[C@H]2[C@@H]3CC[C@@H]4C[C@H](CC(C)(C)O)CC[C@]4(C)[C@H]3CC[C@]12C | 0.53 nM |
| C[C@H](CCC(=O)O)[C@H]1CC[C@H]2[C@@H]3CC[C@@H]4C[C@@H](CC(C)(C)O)CC[C@]4(C)[C@H]3CC[C@]12C | 36 nM |
